From US20230248834A1, “DEGRADATION OF (EGFR) BY CONJUGATION OF EGFR INHIBITORS WITH E3 LIGASE LIGAND AND METHODS OF USE” (BEIGENE, LTD., priority 2020, published 2023)

Biological target: T1, EGFR L858R/T790M/C797S (Homo sapiens, UniProt P00533, C797S/L858R/T790M)
T1 construct: expressed in transfected cells; host or cells: BaF3-LTC
Test: EGFR degradation HTRF assay in BaF3-LTC cells
Assay type: cell-based
Conditions: BaF3-LTC (L858R/T790M/C797S), maximum percentage of inhibition (degradation); read-out: BaF3-LTC Dmax (%)
Method: BaF3-LTC(L858R/T790M/C797S) cells and BaF3 LC(L858R/C797S) cells are treated with compounds diluted in 0.2% DMSO cell culture medium and incubate for 16 h, 37° C., 5% CO2. the final concentration of compounds in all assay is start with 10 uM, 5-fold dilution, total 8 doses were included.
After 16 h treatment, add HTRF lysis buffer to each well; seal the plate and incubate 1 hour at room temperature on a plate shaker; Once the cells are lysed, 16 μL of cell lysate are transferred to a PE 384-well HTRF detection plate; 4 μL of pre-mixed HTRF antibodies are added to each well; Cover the plate with a plate sealer, spin 1000 rpm for 1 min, Incubate overnight at room temperature; Read on BMG PheraStar with HTRF protocol (337 nm-665 nm-620 nm).
The inhibition (degradation) percentage of the compound was calculated by the following equation: Inhibition percentage of Compound=100−100×(Signal−low control)/(High control−low control), wherein signal=each test compound group
High control=Cell group with added DMSO and without compound, indicating microplate readings without EGFR degradation;
Dmax is the maximum percentage of inhibition (degradation).
The IC50 (DC50) value of a compound can be obtained by fitting the following equation
Y=Bottom+(TOP−Bottom)/(1+((IC50/X)^hillslope))
Wherein, X and Y are known values, and IC50, Hillslope, Top and Bottom are the parameters obtained by fitting with software. Y is the inhibition percentage (calculated from the equation), X is the concentration of the compound; IC50 is the concentration of the compound when the 50% inhibition is reached. The smaller the IC50 value is, the stronger the inhibitory ability of the compound is. Vice versa, the higher the IC50 value is, the weaker the inhibitory ability of the compound is; Hillslope represents the slope of the fitted curve, generally around 1*; Bottom represents the minimum value of the curve obtained by data fitting, which is generally 0%±20%; Top represents the maximum value of the curve obtained by data fitting, which is generally 100%±20%. The experimental data were fitted by calculating and analyzing with Dotmatics data analysis software.

T1 sequence (P00533 25-1210 T790M/C797S/L858R): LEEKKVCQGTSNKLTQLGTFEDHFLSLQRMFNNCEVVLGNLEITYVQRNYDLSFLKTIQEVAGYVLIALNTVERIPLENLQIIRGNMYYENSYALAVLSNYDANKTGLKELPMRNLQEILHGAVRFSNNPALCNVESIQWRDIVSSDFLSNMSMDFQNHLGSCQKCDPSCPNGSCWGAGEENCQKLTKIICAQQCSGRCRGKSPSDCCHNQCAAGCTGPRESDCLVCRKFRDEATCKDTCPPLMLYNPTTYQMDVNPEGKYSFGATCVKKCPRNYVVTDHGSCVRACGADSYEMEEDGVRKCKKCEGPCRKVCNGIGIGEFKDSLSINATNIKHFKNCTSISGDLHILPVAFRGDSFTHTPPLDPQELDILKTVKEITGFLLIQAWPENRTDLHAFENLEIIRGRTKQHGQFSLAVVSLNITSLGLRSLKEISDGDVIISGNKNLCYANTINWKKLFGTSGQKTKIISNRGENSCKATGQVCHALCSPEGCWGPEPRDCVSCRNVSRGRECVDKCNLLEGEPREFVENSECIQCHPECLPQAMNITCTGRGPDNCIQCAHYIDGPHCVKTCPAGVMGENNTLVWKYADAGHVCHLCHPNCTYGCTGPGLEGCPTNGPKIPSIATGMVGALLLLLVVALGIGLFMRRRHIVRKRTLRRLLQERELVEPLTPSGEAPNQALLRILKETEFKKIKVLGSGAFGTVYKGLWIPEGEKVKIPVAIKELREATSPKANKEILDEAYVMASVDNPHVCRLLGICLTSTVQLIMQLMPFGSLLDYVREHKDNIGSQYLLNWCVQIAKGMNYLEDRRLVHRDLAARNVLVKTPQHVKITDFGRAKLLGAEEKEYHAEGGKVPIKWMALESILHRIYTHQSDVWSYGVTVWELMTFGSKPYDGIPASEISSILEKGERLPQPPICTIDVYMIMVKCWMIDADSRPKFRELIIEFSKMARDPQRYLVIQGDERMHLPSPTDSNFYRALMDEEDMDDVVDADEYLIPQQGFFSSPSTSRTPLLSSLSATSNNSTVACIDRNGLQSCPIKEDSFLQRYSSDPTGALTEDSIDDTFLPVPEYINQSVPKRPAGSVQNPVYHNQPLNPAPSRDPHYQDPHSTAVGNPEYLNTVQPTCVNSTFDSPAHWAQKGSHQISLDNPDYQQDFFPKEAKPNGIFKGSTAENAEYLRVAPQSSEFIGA

CCOc1cc(N2CCC(N3CCN(CC4CN(c5cc(F)c([C@H]6CCC(=O)NC6=O)c(F)c5)C4)CC3)CC2)c(CC)cc1Nc1ncc(Br)c(Nc2ccc3nc(CC)ccc3c2P(C)(C)=O)n1 [Example 541, (R)-3-(4-(3-((4-(1-(4-((5-bromo-4-((5-(dimethylphosphoryl)-2-ethylquinolin-6-yl)amino)pyrimidin-2-yl)amino)-5-ethoxy-2-ethylphenyl)piperidin-4-yl)piperazin-1-yl)methyl)azetidin-1-yl)-2,6-difluorophenyl)piperidine-2,6-dione]
Dmax: 95.6%

CCOc1cc(N2CCC(N3CCN(CCc4c(F)ccc5c4n(CC)c(=O)n5C4CCC(=O)NC4=O)CC3)CC2)c(CC)cc1Nc1ncc(Br)c(Nc2ccc3nc(CC)ccc3c2P(C)(C)=O)n1 (stereo not drawn) [Example 558, 3-(4-(2-(4-(1-(4-((5-bromo-4-((5-(dimethylphosphoryl)-2-ethylquinolin-6-yl)amino)pyrimidin-2-yl)amino)-5-ethoxy-2-ethylphenyl)piperidin-4-yl)piperazin-1-yl)ethyl)-3-ethyl-5-fluoro-2-oxo-2,3-dihydro-1H-benzo[d]imidazol-1-yl)piperidine-2,6-dione]
Dmax: 95.9%

[2H]C1([2H])CC([2H])(c2c(F)cc(CCN3CCN(C4CCN(c5cc(OCC)c(Nc6ncc(Br)c(Nc7ccc8nc(C)ccc8c7P(C)(C)=O)n6)cc5CC)CC4)CC3)cc2F)C(=O)NC1=O (stereo not drawn) [Example 570, 3-(4-(2-(4-(1-(4-((5-bromo-4-((5-(dimethylphosphoryl)-2-methylquinolin-6-yl)amino)pyrimidin-2-yl)amino)-5-ethoxy-2-ethylphenyl)piperidin-4-yl)piperazin-1-yl)ethyl)-2,6-difluorophenyl)piperidine-2,6-dione-3,5,5-d3]
Dmax: 91.7%

CCOc1cc(N2CCC(N3CCN(C(=O)[C@H]4CN(c5cc(F)c([C@H]6CCC(=O)NC6=O)c(F)c5)CC4(C)C)CC3)CC2)c(C)cc1Nc1ncc(Br)c(Nc2ccc3nc(C)ccc3c2P(C)(C)=O)n1 [Example 727, (R)-3-(4-((R)-4-(4-(1-(4-((5-bromo-4-((5-(dimethylphosphoryl)-2-methylquinolin-6-yl)amino)pyrimidin-2-yl)amino)-5-ethoxy-2-methylphenyl)piperidin-4-yl)piperazine-1-carbonyl)-3,3-dimethylpyrrolidin-1-yl)-2,6-difluorophenyl)piperidine-2,6-dione]
Dmax: 97.5%

CCOc1cc(N2CCC(N3CCN(CCc4cc(F)c([C@H]5CCC(=O)NC5=O)c(F)c4)CC3)CC2)c(CC)cc1Nc1ncc(Br)c(Nc2ccc3nc(C)c(F)cc3c2P(C)(C)=O)n1 [Example 728, (R)-3-(4-(2-(4-(1-(4-((5-bromo-4-((5-(dimethylphosphoryl)-3-fluoro-2-methylquinolin-6-yl)amino)pyrimidin-2-yl)amino)-5-ethoxy-2-ethylphenyl)piperidin-4-yl)piperazin-1-yl)ethyl)-2,6-difluorophenyl)piperidine-2,6-dione]
Dmax: 95.3%

COc1cc(N2CCC(N3CCN(C(=O)[C@H]4CN(c5cc(F)c([C@H]6CCC(=O)NC6=O)c(F)c5)CC4(C)C)CC3)CC2)c(C)cc1Nc1ncc(Br)c(Nc2ccc3nc(C)c(F)cc3c2P(C)(C)=O)n1 [Example 729, (R)-3-(4-((R)-4-(4-(1-(4-((5-bromo-4-((5-(dimethylphosphoryl)-3-fluoro-2-methylquinolin-6-yl)amino)pyrimidin-2-yl)amino)-5-methoxy-2-methylphenyl)piperidin-4-yl)piperazine-1-carbonyl)-3,3-dimethylpyrrolidin-1-yl)-2,6-difluorophenyl)piperidine-2,6-dione]
Dmax: 97.1%

CCOc1cc(N2CCC(N3CCN(CCc4cc(F)c([C@H]5CCC(=O)NC5=O)c(F)c4)CC3)CC2)c(CC)cc1Nc1ncc(Cl)c(Nc2cc(F)c3nc(CC)ccc3c2P(C)(C)=O)n1 [Example 730, (R)-3-(4-(2-(4-(1-(4-((5-chloro-4-((5-(dimethylphosphoryl)-2-ethyl-8-fluoroquinolin-6-yl)amino)pyrimidin-2-yl)amino)-5-ethoxy-2-ethylphenyl)piperidin-4-yl)piperazin-1-yl)ethyl)-2,6-difluorophenyl)piperidine-2,6-dione]
Dmax: 83.7%

CCOc1cc(N2CCC(N3CCN(CCc4c(F)cc(F)c5c4oc(=O)n5C4CCC(=O)NC4=O)CC3)CC2)c(CC)cc1Nc1ncc(Br)c(Nc2ccc3nc(CC)ccc3c2P(C)(C)=O)n1 (stereo not drawn) [Example 731, 3-(7-(2-(4-(1-(4-((5-bromo-4-((5-(dimethylphosphoryl)-2-ethylquinolin-6-yl)amino)pyrimidin-2-yl)amino)-5-ethoxy-2-ethylphenyl)piperidin-4-yl)piperazin-1-yl)ethyl)-4,6-difluoro-2-oxobenzo[d]oxazol-3(2H)-yl)piperidine-2,6-dione]
Dmax: 80.3%

COc1cc(N2CCC(N3CCN(C(=O)[C@@H]4CCN(c5cc(F)c([C@H]6CCC(=O)NC6=O)c(F)c5)C4)CC3)CC2)c(C)cc1Nc1ncc(Br)c(Nc2ccc3nc(C)c(F)cc3c2P(C)(C)=O)n1 [Example 732, (R)-3-(4-((R)-3-(4-(1-(4-((5-bromo-4-((5-(dimethylphosphoryl)-3-fluoro-2-methylquinolin-6-yl)amino)pyrimidin-2-yl)amino)-5-methoxy-2-methylphenyl)piperidin-4-yl)piperazine-1-carbonyl)pyrrolidin-1-yl)-2,6-difluorophenyl)piperidine-2,6-dione]
Dmax: 95.5%

CCOc1cc(N2CCC(N3CCN(CCc4cc(F)c([C@H]5CCC(=O)NC5=O)c(F)c4)CC3)CC2)c(CC)cc1Nc1ncc(C)c(Nc2cc(F)c3nc(CC)ccc3c2P(C)(C)=O)n1 [Example 733, (R)-3-(4-(2-(4-(1-(4-((4-((5-(dimethylphosphoryl)-2-ethyl-8-fluoroquinolin-6-yl)amino)-5-methylpyrimidin-2-yl)amino)-5-ethoxy-2-ethylphenyl)piperidin-4-yl)piperazin-1-yl)ethyl)-2,6-difluorophenyl)piperidine-2,6-dione]
Dmax: 89.5%

CCOc1cc(N2CCC(N3CCN(CCc4c(F)ccc5c4n(C)c(=O)n5C4CCC(=O)NC4=O)CC3)CC2)c(CC)cc1Nc1ncc(Br)c(Nc2ccc3nc(CC)ncc3c2P(C)(C)=O)n1 (stereo not drawn) [Example 736, 3-(4-(2-(4-(1-(4-((5-bromo-4-((5-(dimethylphosphoryl)-2-ethylquinazolin-6-yl)amino)pyrimidin-2-yl)amino)-5-ethoxy-2-ethylphenyl)piperidin-4-yl)piperazin-1-yl)ethyl)-5-fluoro-3-methyl-2-oxo-2,3-dihydro-1H-benzo[d]imidazol-1-yl)piperidine-2,6-dione]
Dmax: 97%

CCOc1cc(N2CCC(N3CCN(CCc4cccc5c4n(CC)c(=O)n5C4CCC(=O)NC4=O)CC3)CC2)c(CC)cc1Nc1ncc(Br)c(Nc2ccc3nc(CC)ncc3c2P(C)(C)=O)n1 (stereo not drawn) [Example 737, 3-(4-(2-(4-(1-(4-((5-bromo-4-((5-(dimethylphosphoryl)-2-ethylquinazolin-6-yl)amino)pyrimidin-2-yl)amino)-5-ethoxy-2-ethylphenyl)piperidin-4-yl)piperazin-1-yl)ethyl)-3-ethyl-2-oxo-2,3-dihydro-1H-benzo[d]imidazol-1-yl)piperidine-2,6-dione]
Dmax: 97.7%

CCOc1cc(N2CCC(N3CCN(CCc4cc(F)c([C@H]5CCC(=O)NC5=O)c(F)c4)CC3)CC2)c(CC)cc1Nc1ncc(Br)c(Nc2ccc3nc(C)ncc3c2P(C)(C)=O)n1 [Example 738, (R)-3-(4-(2-(4-(1-(4-((5-bromo-4-((5-(dimethylphosphoryl)-2-methylquinazolin-6-yl)amino)pyrimidin-2-yl)amino)-5-ethoxy-2-ethylphenyl)piperidin-4-yl)piperazin-1-yl)ethyl)-2,6-difluorophenyl)piperidine-2,6-dione]
Dmax: 95.7%

CCc1cc(Nc2ncc(Br)c(Nc3ccc4nc(C)ncc4c3P(C)(C)=O)n2)c(OC)cc1N1CCC(N2CCN(CCc3cc(F)c([C@H]4CCC(=O)NC4=O)c(F)c3)CC2)CC1 [Example 739, (R)-3-(4-(2-(4-(1-(4-((5-bromo-4-((5-(dimethylphosphoryl)-2-methylquinazolin-6-yl)amino)pyrimidin-2-yl)amino)-2-ethyl-5-methoxyphenyl)piperidin-4-yl)piperazin-1-yl)ethyl)-2,6-difluorophenyl)piperidine-2,6-dione]
Dmax: 95.7%

CCc1cc(Nc2ncc(Br)c(Nc3ccc4nc(C)ncc4c3P(C)(C)=O)n2)c(OC)cc1N1CCC(N2CCN(C(=O)[C@H]3CN(c4cc(F)c([C@H]5CCC(=O)NC5=O)c(F)c4)CC3(C)C)CC2)CC1 [Example 740, (R)-3-(4-((R)-4-(4-(1-(4-((5-bromo-4-((5-(dimethylphosphoryl)-2-methylquinazolin-6-yl)amino)pyrimidin-2-yl)amino)-2-ethyl-5-methoxyphenyl)piperidin-4-yl)piperazine-1-carbonyl)-3,3-dimethylpyrrolidin-1-yl)-2,6-difluorophenyl)piperidine-2,6-dione]
Dmax: 97.2%
